Assay results: paper PMC524646 (Journal of Insect Science, 2003)

Tests used:
[1] = biological target: T1, Ecdysteroid receptor complexes extracted from BII cells (Drosophila melanogaster, UniProt P34021); test: Cell-free receptor assay with receptor complexes extracted from BII cells; assay type: binding; settings: ratio of Kd in cell-free BII extract to EC50 in BII bioassay
T1 sequence (P34021 1-878): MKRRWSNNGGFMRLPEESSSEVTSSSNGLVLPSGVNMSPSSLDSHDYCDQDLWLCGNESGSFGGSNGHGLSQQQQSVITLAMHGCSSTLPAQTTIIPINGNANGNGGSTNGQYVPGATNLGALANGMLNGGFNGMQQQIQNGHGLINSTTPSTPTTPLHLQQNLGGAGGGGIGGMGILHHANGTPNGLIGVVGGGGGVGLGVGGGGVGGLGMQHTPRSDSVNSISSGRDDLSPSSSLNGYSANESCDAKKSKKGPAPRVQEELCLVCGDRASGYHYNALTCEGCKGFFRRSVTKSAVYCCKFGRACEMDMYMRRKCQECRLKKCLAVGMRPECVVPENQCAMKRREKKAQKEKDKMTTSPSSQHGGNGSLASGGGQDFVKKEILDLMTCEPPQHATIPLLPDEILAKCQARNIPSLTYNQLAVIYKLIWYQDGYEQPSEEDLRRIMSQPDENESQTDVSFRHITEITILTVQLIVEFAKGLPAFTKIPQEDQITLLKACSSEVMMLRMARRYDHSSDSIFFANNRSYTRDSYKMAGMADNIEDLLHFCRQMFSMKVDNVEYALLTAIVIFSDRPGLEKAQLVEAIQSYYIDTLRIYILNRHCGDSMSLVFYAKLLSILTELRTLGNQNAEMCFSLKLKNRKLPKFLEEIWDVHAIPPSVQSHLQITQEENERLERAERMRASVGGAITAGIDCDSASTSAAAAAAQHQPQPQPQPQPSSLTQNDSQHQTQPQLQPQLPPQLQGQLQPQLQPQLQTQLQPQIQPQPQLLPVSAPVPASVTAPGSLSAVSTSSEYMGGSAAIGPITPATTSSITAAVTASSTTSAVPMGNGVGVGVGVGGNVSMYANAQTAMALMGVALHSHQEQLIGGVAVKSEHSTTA
T1 sequence (P20153 1-508 partner): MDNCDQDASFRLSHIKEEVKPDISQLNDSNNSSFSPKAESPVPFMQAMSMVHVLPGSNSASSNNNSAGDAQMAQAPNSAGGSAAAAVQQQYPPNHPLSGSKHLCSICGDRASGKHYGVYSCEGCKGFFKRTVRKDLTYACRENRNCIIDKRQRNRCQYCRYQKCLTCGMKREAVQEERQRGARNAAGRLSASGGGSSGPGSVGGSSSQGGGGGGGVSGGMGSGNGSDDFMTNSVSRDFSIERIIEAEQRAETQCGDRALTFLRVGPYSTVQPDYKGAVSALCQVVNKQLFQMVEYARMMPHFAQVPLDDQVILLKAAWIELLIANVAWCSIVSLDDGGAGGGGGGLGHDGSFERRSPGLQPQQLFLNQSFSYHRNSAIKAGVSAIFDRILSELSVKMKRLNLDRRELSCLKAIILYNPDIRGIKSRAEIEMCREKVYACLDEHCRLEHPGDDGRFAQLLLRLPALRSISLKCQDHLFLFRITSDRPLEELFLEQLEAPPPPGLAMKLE

BII cells = settings: ref Dinan, 1985; cited from earlier work
[2] = tested on: insect EcR proteins when expressed in mammalian cells and partnered by RXR; settings: altered ligand specificity and affinity; no reference given; cited from earlier work
[3] = assay type: physicochemical; settings: after attempted synthesis

SMILES | Kd/EC50 [1] | also measured
CC(C)(O)CC[C@@H](O)[C@](C)(O)[C@H]1CC[C@@]2(O)C3=CC(=O)[C@@H]4C[C@@H](O)[C@@H](O)C[C@]4(C)[C@H]3[C@H](O)C[C@]12C [compound 1, turkesterone] | very low | 
CC(C)(O)CC[C@@H](O)[C@](C)(O)[C@H]1CC[C@@]2(O)C3=CC(=O)[C@@H]4C[C@@H](O)[C@@H](O)C[C@]4(C)[C@H]3CC[C@]12C [compound 6, 20-hydroxyecdysone] |  | metabolism by BII cells (BII cells): do not metabolise
CC(C)CC[C@@H](O)[C@](C)(O)[C@H]1CC[C@@]2(O)C3=CC(=O)[C@@H]4C[C@@H](O)[C@@H](O)C[C@]4(C)[C@H]3[C@H](O)C[C@]12C [compound 8, ajugasterone C] | very low | 
CC(C)CC[C@@H](O)[C@](C)(O)[C@H]1CC[C@@]2(O)C3=CC(=O)[C@]4(O)C[C@@H](O)[C@@H](O)C[C@]4(C)[C@H]3[C@H](O)C[C@]12C [compound 9, muristerone A] | very low | activity with insect EcR/RXR in mammalian cells [2]: active, but micromolar concentrations are required
CC(C)(O)CC[C@@H](O)[C@](C)(O)[C@H]1CC[C@@]2(O)C3=CC(=O)[C@@H]4C[C@@H](O)[C@@H](O)C[C@]4(C)[C@H]3[C@H](OC(=O)c3ccccc3)C[C@]12C [turkesterone 11α-benzoate] |  | stability of product [3]: unstable, degrading rapidly back to turkesterone
